Experimental data as given in patent US20230276804A1, “A PESTICIDALLY ACTIVE MIXTURE COMPRISING PYRAZOLOPYRIDINE ANTHRANILAMIDE COMPOUND, OXIDES OR SALTS THEREOF” (priority 2020, published 2023).

Legend:
Type in all cases: in vivo
Phakopsora pachyrhizi = assay: Preventive glasshouse test against Phakopsora pachyrhizi in soybean (Example H); conditions: single compound
Experimental: The single compounds or the respective compound combinations were dissolved in 2% dimethyl sulfoxide/acetone and then mixed with water containing an emulsifier to a calibrated spray volume of 50 ml. The test solutions were poured into spray bottles for further applications.
To test the preventive activity of compounds, healthy young Soybean plants, raised in the greenhouse, were sprayed with the active compound preparation at the stated application rates inside the spray cabinets using hollow cone nozzles. One day after treatment, the plants were inoculated with a suspension containing 2×10^5 Phakopsora pachyrhizi conidia. The inoculated plants were then kept in a greenhouse chamber at a temperature of 22-24° C. and 80-90% relative humidity for disease expression.
A visual assessment of the performance of the single compounds and respective compound combinations was carried out by rating the disease severity (0-100% scale) on treated plants 3, 7, 10 and 15 days after application. Efficacy (% control) of the compounds was calculated by comparing the disease rating in the treatment with the one of the untreated control. The compounds were also assessed for their plant compatibility by recording symptoms like necrosis, chlorosis and stunting. The results have been described for the compound of formula (I-III) in Table H.

Helicoverpa armigera = assay: Leaf dip method (tomato leaves) with Bacillus thuringiensis against Helicoverpa armigera (Example D); conditions: single, 0.1 ppm, 72 h
Experimental: The leaf dip method was used, wherein the required quantity of the compounds were weighed and dissolved in a test solution prepared in tubes. The tubes were put on a vortex at 2000 rpm for 90 min for proper mixing and then, for the single compounds, diluted with a 0.01% Triton-X solution, for the combinations, diluted with a 0.01% Triton-X solution containing formulated Bt, to get the desired test concentrations. Tomato leaves were dipped in the solution for 10 seconds, shade dried for 20 min and then transferred to single cells of the bioassay trays. A single third instar larva was released into each cell and the tray was covered with a lid. The bio-assay trays were kept under laboratory conditions at a temperature of 25° C. and relative humidity of 70%. Observations on dead, moribund and live larvae were recorded at 72 h after the release. Percent mortality was calculated by combining dead and moribund larvae and comparing the result to the one of the untreated control. The results have been described for compound of formula (I-III) in Table D.

Plutella xylostella = assay: Leaf dip method (cabbage leaves) against Plutella xylostella (Example C); conditions: single compound, 72 h
Experimental: The leaf dip method was used, wherein the required quantity of the compound or respective compound combinations were weighed and dissolved in a test solution prepared in tubes. The tubes were put on a vortex at 2000 rpm for 90 min for proper mixing and then the test solutions were diluted with 0.01% Triton-X to the desired test concentration. Cabbage leaves were dipped into the solution for 10 seconds, shade dried for 20 min and then transferred to single cells of bioassay trays. A single second instar larva was released into each cell and the tray was covered with a lid. The bio-assay trays were kept under laboratory conditions at a temperature of 25° C. and relative humidity of 70%. Observations on dead, moribund and live larvae were recorded 72 h after the release. Percent mortality was calculated by combining dead and moribund larvae and comparing the result with the one of the untreated control. The results are shown for compound of formula (I-III) in Table C.

Septoria nodorum = assay: Preventive glasshouse test against Parastagonospora nodorum/Septoria nodorum/Stagnospora nodorum in wheat (Example J); conditions: single compound
Experimental: The single compounds or respective compound combinations were dissolved in 2% dimethyl sulfoxide/acetone and then mixed with water containing emulsifier to a calibrated spray volume of 50 mL. The test solutions were poured into spray bottles for further applications.
To test the preventive activity of compounds, healthy young wheat plants, raised in the greenhouse, were sprayed with the active compound preparation at the stated application rates inside the spray cabinets using hollow cone nozzles. One day after treatment, the plants were inoculated with a spore suspension containing 2.8×10^6 Stagnospora nodorum inoculum.
The inoculated plants were then kept in a greenhouse chamber at 22-25° C. temperature and 90-100% relative humidity for disease expression.
A visual assessment of the performance of the single compounds or compound combinations was carried out by rating the disease severity (0-100% scale) on treated plants 3, 7, 10 and 15 days after application. Efficacy (% control) of the single compounds and mixtures was calculated by comparing the disease rating in the treatment with the one of the untreated control. The compounds were also assessed for their plant compatibility by recording symptoms like necrosis, chlorosis and stunting. The results have been described for the compound of formula (I-III) in Table J.

Substance: 6-(3-bromo-1-(3-chloropyridin-2-yl)-1H-pyrazole-5-carboxamido)-N-isopropyl-5-methylpyrazolo[1,5-a]pyridine-7-carboxamide [Compound (I-III)]
- Observed Efficacy (%) (Phakopsora pachyrhizi; 100 ppm): 25%
- Observed Efficacy (%) (Phakopsora pachyrhizi; 500 ppm): 56%
- Observed Efficacy (%) (Helicoverpa armigera): 12.5%
- Observed Efficacy (%) (Plutella xylostella; 0.05 ppm): 12.5%
- Observed Efficacy (%) (Plutella xylostella; 0.1 ppm): 12.5%
- Observed Efficacy (%) (Plutella xylostella; 0.5 ppm): 25%
- Observed Efficacy (%) (Septoria nodorum; 100 ppm): 24%
- Observed Efficacy (%) (Septoria nodorum; 500 ppm): 32%
